Source: ChEMBL document CHEMBL3112450, “Synthesis and in vitro antitumor evaluation of primary amine substituted quinazoline linked benzimidazole” (Bioorg Med Chem Lett, 2014)

Key:
Type in all cases: functional
HCT-116 = test: Cytotoxicity against human HCT116 cells assessed as cell growth at 10^-4 M after 48 hrs by SRB assay; conditions: HCT-116, 48 h, read-out: Activity
LOX IMVI [1] = test: Cytotoxicity against human LOXIMVI cells assessed as cell growth at 10^-6 M after 48 hrs by SRB assay; conditions: read-out: Activity
SF-268 [2] = test: Cytotoxicity against human SF268 cells assessed as cell growth at 10^-7 M after 48 hrs by SRB assay; conditions: SF-268, 48 h, read-out: Activity
OVCAR-8 = test: Cytotoxicity against human OVCAR8 cells after 48 hrs by SRB assay; conditions: OVCAR-8, 48 h
NCI-H460 [3] = test: Cytotoxicity against human NCI-H460 cells assessed as cell growth at 10^-8 M after 48 hrs by SRB assay; conditions: NCI-H460, 48 h, read-out: Activity
HL-60(TB) = test: Cytotoxicity against human HL-60(TB) cells assessed as cell growth at 10^-4 M after 48 hrs by SRB assay; conditions: HL-60, 48 h, read-out: Activity
SF-268 [4] = test: Cytotoxicity against human SF268 cells assessed as cell growth at 10^-4 M after 48 hrs by SRB assay; conditions: SF-268, 48 h, read-out: Activity
SK-MEL-28 [5] = test: Cytotoxicity against human SK-MEL-28 cells assessed as cell growth at 10^-4 M after 48 hrs by SRB assay; conditions: SK-MEL-28, 48 h, read-out: Activity
CAKI-1 [6] = test: Cytotoxicity against human Caki1 cells assessed as cell growth at 10^-6 M after 48 hrs by SRB assay; conditions: CAKI-1, 48 h, read-out: Activity
LOX IMVI [7] = test: Cytotoxicity against human LOXIMVI cells after 48 hrs by SRB assay
A498 = test: Cytotoxicity against human A498 cells assessed as cell growth at 10^-8 M after 48 hrs by SRB assay; conditions: A498, 48 h, read-out: Activity
SF-539 = test: Cytotoxicity against human SF539 cells assessed as cell growth at 10^-8 M after 48 hrs by SRB assay; conditions: SF-539, 48 h, read-out: Activity
SK-MEL-28 [8] = test: Cytotoxicity against human SK-MEL-28 cells assessed as cell growth at 10^-6 M after 48 hrs by SRB assay; conditions: SK-MEL-28, 48 h, read-out: Activity
RPMI-8226 = test: Cytotoxicity against human RPMI8226 cells assessed as cell growth at 10^-6 M after 48 hrs by SRB assay; conditions: RPMI-8226, 48 h, read-out: Activity
CCRF-CEM [9] = test: Cytotoxicity against human CCRF-CEM cells assessed as cell growth at 10^-8 M after 48 hrs by SRB assay; conditions: read-out: Activity
HOP-62 = test: Cytotoxicity against human HOP62 cells assessed as cell growth at 10^-4 M after 48 hrs by SRB assay; conditions: HOP-62, 48 h, read-out: Activity
MCF7 = test: Cytotoxicity against human MCF7 cells assessed as cell growth at 10^-8 M after 48 hrs by SRB assay; conditions: MCF7, 48 h, read-out: Activity
TK-10 [10] = test: Cytotoxicity against human TK10 cells after 48 hrs by SRB assay; conditions: TK-10, 48 h
U-251 = test: Cytotoxicity against human U251 cells after 48 hrs by SRB assay; conditions: U-251, 48 h
MDA-MB-231 [11] = test: Cytotoxicity against human MDA-MB-231 cells assessed as cell growth at 10^-6 M after 48 hrs by SRB assay; conditions: MDA-MB-231, 48 h, read-out: Activity
NCI-H23 = test: Cytotoxicity against human NCI-H23 cells assessed as cell growth at 10^-7 M after 48 hrs by SRB assay; conditions: NCI-H23, 48 h, read-out: Activity
TK-10 [12] = test: Cytotoxicity against human TK10 cells assessed as cell growth at 10^-6 M after 48 hrs by SRB assay; conditions: TK-10, 48 h, read-out: Activity
SF-295 = test: Cytotoxicity against human SF295 cells assessed as cell growth at 10^-6 M after 48 hrs by SRB assay; conditions: SF-295, 48 h, read-out: Activity
SK-OV-3 = test: Cytotoxicity against human SKOV3 cells assessed as cell growth at 10^-8 M after 48 hrs by SRB assay; conditions: SK-OV-3, 48 h, read-out: Activity
CAKI-1 [13] = test: Cytotoxicity against human Caki1 cells assessed as cell growth at 10^-7 M after 48 hrs by SRB assay; conditions: CAKI-1, 48 h, read-out: Activity
SW-620 = test: Cytotoxicity against human SW620 cells assessed as cell growth at 10^-6 M after 48 hrs by SRB assay; conditions: SW-620, 48 h, read-out: Activity
MOLT-4 = test: Cytotoxicity against human MOLT4 cells assessed as cell growth at 10^-7 M after 48 hrs by SRB assay; conditions: MOLT-4, 48 h, read-out: Activity
DU-145 = test: Cytotoxicity against human DU145 cells assessed as cell growth at 10^-7 M after 48 hrs by SRB assay; conditions: DU-145, 48 h, read-out: Activity
MDA-MB-231 [14] = test: Cytotoxicity against human MDA-MB-231 cells assessed as cell growth at 10^-8 M after 48 hrs by SRB assay; conditions: MDA-MB-231, 48 h, read-out: Activity
MDA-MB-435 = test: Cytotoxicity against human MDA-MB-435 cells assessed as cell growth at 10^-4 M after 48 hrs by SRB assay; conditions: MDA-MB-435, 48 h, read-out: Activity
[15] = Cytotoxicity against human OVCAR5 cells assessed as cell growth at 10^-7 M after 48 hrs by SRB assay; conditions: OVCAR-5, 48 h, read-out: Activity
OVCAR-3 = test: Cytotoxicity against human OVCAR3 cells after 48 hrs by SRB assay; conditions: OVCAR-3, 48 h
RXF 393 [16] = test: Cytotoxicity against human RXF393 cells assessed as cell growth at 10^-7 M after 48 hrs by SRB assay; conditions: RXF 393, 48 h, read-out: Activity
CCRF-CEM [17] = test: Cytotoxicity against human CCRF-CEM cells assessed as cell growth at 10^-7 M after 48 hrs by SRB assay; conditions: read-out: Activity
ACHN = test: Cytotoxicity against human ACHN cells assessed as cell growth at 10^-7 M after 48 hrs by SRB assay; conditions: read-out: Activity
RXF 393 [18] = test: Cytotoxicity against human RXF393 cells assessed as cell growth at 10^-6 M after 48 hrs by SRB assay; conditions: RXF 393, 48 h, read-out: Activity
NCI-H460 [19] = test: Cytotoxicity against human NCI-H460 cells after 48 hrs by SRB assay; conditions: NCI-H460, 48 h
HOP-92 = test: Cytotoxicity against human HOP92 cells assessed as growth inhibition at 10 uM after 48 hrs by SRB assay; conditions: HOP-92, 48 h, read-out: GI

For `C=CCn1c(C)nc2cc(Nc3nc(Nc4ccc5nc(C)n(CC=C)c5c4)c4ccccc4n3)ccc21`, the growth at 100 µM (HCT-116) was 3%, the growth at 1 µM (LOX IMVI [1]) was -85% and the growth at 0.1 µM (SF-268 [2]) was 91%. The GI50 (OVCAR-8) was 0.284 µM, the LC50 (OVCAR-8) was over 100 µM and the growth at 0.01 µM (NCI-H460 [3]) was 102%. It also gave a growth at 100 µM (HL-60(TB)) of -28%, a growth at 100 µM (SF-268 [4]) of -82% and a growth at 100 µM (SK-MEL-28 [5]) of -48%. The growth at 1 µM (CAKI-1 [6]) was 88%, the GI50 (LOX IMVI [7]) was 0.18 µM and the LC50 (LOX IMVI [7]) was 0.64 µM. The TGI (LOX IMVI [7]) was 0.339 µM, the growth at 0.01 µM (A498) was 101% and the growth at 0.01 µM (SF-539) was 96%. The growth at 1 µM (SK-MEL-28 [8]) was 104%, the growth at 1 µM (RPMI-8226) was 59% and the growth at 0.01 µM (CCRF-CEM [9]) was 105%. It also gave a growth at 100 µM (HOP-62) of -38%, a growth at 0.01 µM (MCF7) of 101% and a GI50 (TK-10 [10]) of 0.522 µM. For the same compound, the LC50 (TK-10 [10]) was 4.13 µM, the TGI (TK-10 [10]) was 1.71 µM and the GI50 (U-251) was 0.177 µM. For the same compound, the TGI (U-251) was 0.331 µM, the growth at 1 µM (MDA-MB-231 [11]) was -62% and the growth at 0.1 µM (NCI-H23) was 93%. It also gave a growth at 1 µM (TK-10 [12]) of 30%, a growth at 1 µM (SF-295) of 78% and a growth at 0.01 µM (SK-OV-3) of 95%. For the same compound, the growth at 0.1 µM (CAKI-1 [13]) was 97%, the growth at 1 µM (SW-620) was -69% and the growth at 0.1 µM (MOLT-4) was 91%. The growth at 0.1 µM (DU-145) was 99%, the growth at 0.01 µM (MDA-MB-231 [14]) was 111% and the growth at 100 µM (MDA-MB-435) was -30%. For the same compound, the growth at 0.1 µM [15] was 95%, the GI50 (OVCAR-3) was 0.192 µM and the LC50 (OVCAR-3) was 0.701 µM. The TGI (OVCAR-3) was 0.367 µM, the growth at 0.1 µM (RXF 393 [16]) was 88% and the growth at 0.1 µM (CCRF-CEM [17]) was 107%. For the same compound, the growth at 0.1 µM (ACHN) was 103%, the growth at 1 µM (RXF 393 [18]) was 22% and the GI50 (NCI-H460 [19]) was 0.22 µM.

Work on `C=CCn1c(C)nc2ccc(Nc3nc(Nc4ccc(F)cc4)nc4ccccc34)cc21` yielded a growth at 100 µM (HCT-116) of -77%, a growth at 1 µM (LOX IMVI [1]) of 96% and a growth at 0.1 µM (SF-268 [2]) of 90%. For the same compound, the GI50 (OVCAR-8) was 3.05 µM, the LC50 (OVCAR-8) was over 100 µM and the TGI (OVCAR-8) was 13.6 µM. It also gave a growth at 0.01 µM (NCI-H460 [3]) of 100%, a growth at 100 µM (HL-60(TB)) of -45% and a growth at 100 µM (SF-268 [4]) of -59%. It also gave a growth at 100 µM (SK-MEL-28 [5]) of -50%, a growth at 1 µM (CAKI-1 [6]) of 93% and a GI50 (LOX IMVI [7]) of 4.36 µM. The LC50 (LOX IMVI [7]) was over 100 µM, the TGI (LOX IMVI [7]) was 23 µM and the growth at 0.01 µM (A498) was 81%. The growth at 0.01 µM (SF-539) was 99%, the growth at 1 µM (SK-MEL-28 [8]) was 89% and the growth at 1 µM (RPMI-8226) was 84%. The growth at 0.01 µM (CCRF-CEM [9]) was 99%, the growth at 100 µM (HOP-62) was -46% and the growth at 0.01 µM (MCF7) was 91%. It also gave a GI50 (TK-10 [10]) of 6.83 µM, an LC50 (TK-10 [10]) of 75.5 µM and a TGI (TK-10 [10]) of 24.6 µM. For the same compound, the GI50 (U-251) was 3.15 µM, the TGI (U-251) was 14.9 µM and the CC50 (U-251; read-out: LC50 (the source's name)) was 48.9 µM. For the same compound, the growth at 1 µM (MDA-MB-231 [11]) was 85%, the growth at 0.1 µM (NCI-H23) was 87% and the growth at 1 µM (TK-10 [12]) was 100%. It also gave a growth at 1 µM (SF-295) of 91%, a growth at 0.01 µM (SK-OV-3) of 96% and a growth at 0.1 µM (CAKI-1 [13]) of 102%. For the same compound, the growth at 1 µM (SW-620) was 89%, the growth at 0.1 µM (MOLT-4) was 96% and the growth at 0.1 µM (DU-145) was 98%. The growth at 0.01 µM (MDA-MB-231 [14]) was 99%, the growth at 100 µM (MDA-MB-435) was -53% and the growth at 0.1 µM [15] was 101%. The GI50 (OVCAR-3) was 5.04 µM, the LC50 (OVCAR-3) was 46.3 µM and the TGI (OVCAR-3) was 17.8 µM. The growth at 0.1 µM (RXF 393 [16]) was 83%, the growth at 0.1 µM (CCRF-CEM [17]) was 102% and the growth at 0.1 µM (ACHN) was 97%. It also gave a growth at 1 µM (RXF 393 [18]) of 64%, a GI50 (NCI-H460 [19]) of 3.11 µM and an LC50 (concentration killing 50% of cells) (NCI-H460 [19]) of 83.9 µM. For the same compound, the TGI (NCI-H460 [19]) was 14.5 µM.

With `C=CCn1c(C)nc2cc(Nc3nc(NCCO)nc4ccccc34)ccc21` the inhibition of growth at 10 µM (HOP-92) was 40%.

Compound `C=CCn1c(C)nc2ccc(Nc3nc(Sc4ccc(N)cc4)nc4ccccc34)cc21` has an inhibition of growth at 10 µM (HOP-92) of 30%.
